Active and inactive are the calls of the source. The rule behind the calls is not given here.
How the values were obtained:
[1] = biological target: Transcription factor Jun (Homo sapiens) (UniProt P05412); test: Increase in transcriptional activity of AP1 transfected in V79-4 cells by luciferase assay; assay type: cell-based
[2] = system: V79-4; test: ROS scavenging activity in chinese hamster V79-4 cells at 50 ug/mL after 30 mins by DCF-DA method; assay type: functional, Cricetulus griseus
[3] = system: V79-4; test: Inhibition of hydrogen peroxide-induced lipid peroxidation in chinese hamster V79-4 cells assessed as TBARS per mg of protein at 50 ug/mL; assay type: functional, Cricetulus griseus
[4] = system: V79-4; test: Inhibition of hydrogen peroxide-induced lipid peroxidation in chinese hamster V79-4 cells assessed as TBARS per mg of protein at 1 ug/mL; assay type: functional, Cricetulus griseus
[5] = system: V79-4; test: Effect on hydrogen peroxide-induced DNA damage in chinese hamster V79-4 cells assessed as decrease in phospho H2A.X expression; assay type: functional, cell-based; conditions: Cricetulus griseus
[6] = system: V79-4; test: Decrease in hydrogen peroxide-induced 8-OHdG in chinese hamster V79-4 cells at 1 ug/mL; assay type: functional, Cricetulus griseus
[7] = system: V79-4; test: Protection against hydrogen peroxide-induced apoptosis in chinese hamster V79-4 cells assessed as cell survival by MTT assay; assay type: functional, Cricetulus griseus
[8] = DPPH radical scavenging activity at 10 ug/ml after 30 mins; assay type: functional
[9] = DPPH radical scavenging activity at 50 ug/ml after 30 mins; assay type: functional
[10] = system: V79-4; test: ROS scavenging activity in chinese hamster V79-4 cells at 1 ug/mL after 30 mins by DCF-DA method; assay type: functional, Cricetulus griseus
[11] = system: V79-4; test: ROS scavenging activity in chinese hamster V79-4 cells at 10 ug/mL after 30 mins by DCF-DA method; assay type: functional, Cricetulus griseus
[12] = system: V79-4; test: Protective effect on hydrogen peroxide-induced damage in chinese hamster V79-4 cells in presence of U0126 by MTT assay; assay type: functional, cell-based; conditions: Cricetulus griseus
[13] = system: V79-4; test: Protective effect on hydrogen peroxide-induced cell damage in chinese hamster V79-4 cells assessed as decrease in apoptotic sub-G1 DNA content at 50 ug/ml by flow cytometry; assay type: functional, Cricetulus griseus; parameters: scale not given: the % may be the effect or the level left
[14] = DPPH radical scavenging activity at 1 ug/ml after 30 mins; assay type: functional
[15] = system: V79-4; test: Activation of ERK in chinese hamster V79-4 cells assessed as phosphorylated ERK within 6 hrs; assay type: cell-based; conditions: Cricetulus griseus
[16] = system: V79-4; test: Inhibition of hydrogen peroxide-induced lipid peroxidation in chinese hamster V79-4 cells assessed as TBARS per mg of protein at 10 ug/mL; assay type: functional, Cricetulus griseus
[17] = system: V79-4; test: Protective effect on hydrogen peroxide-induced cell damage in chinese hamster V79-4 cells assessed as decrease in DNA fragmentation level at 50 ug/ml by ELISA; assay type: functional, cell-based; conditions: Cricetulus griseus
[18] = system: V79-4; test: Decrease in hydrogen peroxide-induced 8-OHdG in chinese hamster V79-4 cells at 50 ug/mL; assay type: functional, Cricetulus griseus
[19] = system: V79-4; test: Decrease in hydrogen peroxide-induced 8-OHdG in chinese hamster V79-4 cells at 10 ug/mL; assay type: functional, Cricetulus griseus

Sequence of Transcription factor Jun (Homo sapiens) (P05412 whole entry): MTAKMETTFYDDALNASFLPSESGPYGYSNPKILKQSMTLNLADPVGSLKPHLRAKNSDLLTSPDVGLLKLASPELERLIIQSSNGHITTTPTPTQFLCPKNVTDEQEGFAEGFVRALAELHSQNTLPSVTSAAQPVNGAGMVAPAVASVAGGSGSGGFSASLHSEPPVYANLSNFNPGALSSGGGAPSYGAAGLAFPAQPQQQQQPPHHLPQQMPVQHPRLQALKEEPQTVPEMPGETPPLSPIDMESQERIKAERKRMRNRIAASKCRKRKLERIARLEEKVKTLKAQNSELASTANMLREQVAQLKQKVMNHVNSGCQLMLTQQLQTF

Compound: COc1ccc(-c2coc3cc(O)c(OC)c(O)c3c2=O)cc1 [IRISOLIDONE]
- Activity [1]: Active
- Activity [2]: 66%
- Activity [3]: 0.8 µmol
- Activity [4]: 1.2 µmol
- Activity [5]: Active
- Activity [6]: 9280 pg/mL
- Survival [7]: 48%
- Activity [8]: 19%
- Activity [9]: 44%
- Activity [10]: 41%
- Activity [11]: 58%
- Activity [12]: inactive
- Activity [13]: 36%
- Activity [14]: 10%
- Activity [15]: Active
- Activity [16]: 1 µmol
- Activity [17]: Active
- Activity [18]: 6409 pg/mL
- Activity [19]: 7956 pg/mL

Compound: COc1ccc(-c2coc3cc(O[C@@H]4O[C@H](COC5OC[C@@H](O)[C@H](O)[C@H]5O)[C@@H](O)[C@H](O)[C@H]4O)c(OC)c(O)c3c2=O)cc1 (stereo not given in full) [KAKKALIDE]
- Activity [2]: 51%
- Activity [8]: 12%
- Activity [9]: 28%
- Activity [10]: 29%
- Activity [11]: 37%
- Activity [14]: 8%

From ChEMBL document CHEMBL1143962, “Protective effect of irisolidone, a metabolite of kakkalide, against hydrogen peroxide induced cell damage via antioxidant effect” (2008)
